Measurements reported in patent publication US11622967B2 (SUVEN LIFE SCIENCES LIMITED, priority 2018, dated 2023).
Structures can show the parent of a compound that is named as a salt.

Experiments:
[1] = biological target: histamine-3 receptor (in-vivo) (Rattus norvegicus (Rat), UniProt Q9QYN8); test: (R)-α-methylhistamine induced dipsogenia assay; details: rats, oral, RAMH 2.5 mg/kg s.c.
Protocol: The experiment consisted of 3 days. The animals were individually housed in their home cages. 24 h water consumption was recorded for 2 days. Rats were randomized according to average of 2 days water consumption. […] Statistical analysis: Data was compared and assessed by one-way ANOVA followed by Dunnett's post hoc test by using graph pad prism software package.

male C57BL/6J mice = test: Sleep and wake profile by telemetric EEG in male C57BL/6J mice; assay type: in vivo, mouse; details: 10 and 30 mg/kg, p.o., first 4 hours post dosing (FIG. 3)
Source text: Mice were anesthetized with isoflurane (Baxter India Private Limited; 4% in oxygen for induction; 2% for maintenance) and were fixed into the stereotaxic frame (Stoelting, Ill., USA) to perform surgery. An incision was made to reveal bregma from which coordinates were taken. Telemetric transmitter (Model F20-EET; DSI, St. Paul, Minn., USA) was implanted into intraperitoneal cavity of the […] and leads were tunneled subcutaneously to head. One pair of flexible spring electrodes were implanted epidurally into the frontal cortex region at coordinates of AP+1.0 mm, ML±2.0 mm (Franklin and Paxinos, 20074) for recording of EEG and electrodes were fixed to the skull with dental acrylic cement (DENTALON® plus). The second set of lead wires was implanted into the neck nuchal muscle to record EMG. Incision was closed using non absorbable sutures. After a surgical recovery of minimum 2 weeks, animals were acclimatized to the handling procedures and were given a mock dosing for 3 days before the first experimental day.
On the day of study, transmitter was switched on using magnet and animals were transferred on to the receiver along with the home cage. Recording was started 3 h after the lights-on using Ponemah (Version 5.2) software. […] Recording was continued for 6 h post treatment. […]
(§1) Statistical analysis: EEG data was scored with automated standard sleep scoring protocols using Neuroscore. […]

male Wistar rats = test: Sleep and wake profile by telemetric EEG in male Wistar rats; assay type: in vivo, rat; details: 10 and 30 mg/kg, p.o., first 4 hours post dosing (FIG. 2)
Source text: (§2) Rats were anesthetized with isoflurane (Baxter India Private Limited; 4% in oxygen for induction; 2% for maintenance) and were fixed into the stereotaxic frame (Stoelting, Ill., USA) to perform surgery. An incision was made to reveal bregma from which coordinates were taken. Telemetric transmitter (Model F40-EET; DSI, St. Paul, Minn., USA) was implanted into intraperitoneal cavity of the rat and leads were tunneled subcutaneously to head. One pair of electrodes were implanted epidurally into the frontal cortex region using stainless steel screws (CMA Microdialysis, Stockholm, Sweden) at coordinates of AP+2.0 mm, ML±2.2 mm (Paxinos and Watson, 2004) for recording of EEG and electrodes were fixed to the skull with dental acrylic cement (DENTALON® plus). The second set of lead wires was implanted into the neck nuchal muscle to record electromyogram (EMG). Incision was closed using non absorbable sutures. After a surgical recovery of minimum 2 weeks, animals were acclimatized to the handling procedures and were given a mock dosing for 3 days before the first experimental day.
On the day of study, transmitter was switched on using magnet and animals were transferred on to the receiver along with the home cage. […]
as §1

[2] = system: cortical levels of dopamine and norepinephrine; test: Dopamine and norepinephrine modulation in prefrontal cortex, microdialysis; assay type: in vivo, rat; details: male Wistar rats, 3-30 mg/kg, p.o. (FIG. 7)
Source text: (§3) Male Wistar rats (240-300 g body weight) were stereotaxically implanted with a microdialysis guide cannula in prefrontal cortex (PFC; AP: +3.2 mm, ML: −0.5 mm, DV: −1.0 mm) under isoflurane anesthesia. Co-ordinates were taken according to atlas for the rat brain (Paxinos and Watson 2004) with reference points taken from bregma and vertical from the skull. The rats were allowed to recover individually for four days in a round bottom Plexiglas bowl with free access to feed and water.
(§4) After surgical recovery of 4 days, male Wistar rats were connected to dual quartz lined two-channel liquid swivel (Instech, UK) on a counter balance lever arm, which allowed unrestricted movements of the animal. […]
Quantitation of dopamine and norepinephrine: Monoamines in dialysate were derivatized with dansyl chloride and quantified using LC-MS/MS based method in calibration ranges of 0.07-15 nmol/L for all […] analytes.
(§5) Statistical analysis: All microdialysis data for dopamine and norepinephrine were plotted as percent change from mean dialysate basal concentrations with 100% defined as the average of four pre-dose values. […] Area under the curve (AUC) values for percent change in neurotransmitter levels were calculated and the statistical significance between the mean AUC value were compared against vehicle treatment using one-way ANOVA followed by Dunnett's test. […]

[3] = system: orexin-B-saporin lesioned male Wistar rats; test: Sleep and wake profile by telemetric EEG in orexin-B-saporin lesioned rats (narcolepsy model); assay type: in vivo, rat
Protocol: Rats were anesthetized with 4% isoflurane (Baxter India Private Limited) and maintained on 2% isoflurane for entire duration of surgery. Under isoflurane anesthesia, rats were placed into a stereotaxic instrument and received bilateral microinjections of 0.5 μL containing 490 ng of orexin-B-saporin conjugate (Advanced Targeting System, San Diego, Calif., USA) or saline solution in the lateral hypothalamus (coordinates: AP: −3.5 mm; ML: ±1.5 mm; DV: −8.7 mm).^3 Microinjections were performed using a glass micropipette (20 μm at the tip). Analgesic and antibiotic treatment were administered at the end of this procedure.
as §2, with “After injection of” for “Rats were anesthetized with isoflurane (Baxter India Private Limited; 4% in oxygen for induction; 2% for maintenance) and were fixed into”, “orexin-B-Saporin, telemetric” for “stereotaxic frame (Stoelting, Ill., USA) to perform surgery. An incision was made to reveal bregma from which coordinates were taken. Telemetric”, “2004)^3” for “2004)”, “EMG.” for “electromyogram (EMG).”, “about 3” for “minimum 2”
On the day of study, transmitter was switched on using magnet and animals were transferred on to the receiver along with the home cage. Recording was started 1 h before lights-off using Ponemah (Version 5.2) software. […] Recording was continued for 8 h post treatment. EEG and EMG were collected as primary signals and sampled at 500 Hz. Whereas, temperature and activity were sampled at 250 Hz. The data was stored for off-line analysis using NeuroScore software (Version 3.0).
Statistical analysis: EEG data was scored with automated standard sleep scoring protocols using Neuroscore. Rodent EEG and EMG data was manually classified into one of three sleep/wake states: awake, REM (Rapid eye movement/Paradoxical sleep), or NREM (Non-rapid eye movement/slow wave sleep) according to visual analysis of EEG frequency and amplitude characteristics and EMG activity using 10 s epochs. Waking activity was defined as relatively low-amplitude EEG activity with low power in the low-frequency bands, accompanied by moderate to high level EMG activity. NREM was defined as generally high-amplitude EEG activity with greater power in the low-frequency bands from 0.5-4 Hz, accompanied by minimal EMG activity. REM sleep was characterized by moderate and constant amplitude EEG activity focused in the θ (6-9 Hz) range with no (or only sporadic) EMG activity. […]

[4] = system: cortical histamine levels; test: Histamine modulation in prefrontal cortex, microdialysis; assay type: in vivo, rat
Source text: as §3, §4
Quantitation of histamine: Histamine concentrations in dialysates were quantified using post-column derivatization with o-phthalaldehyde employing HPLC coupled to fluorescence detector and analysis was carried out in the calibration range of 33-640 fmol/20 μL
as §5, with “histamine was” for “dopamine and norepinephrine were”, “five” for “four”, “histamine” for “neurotransmitter”

histamine-3 receptor (in-vivo), sequence (Q9QYN8 whole entry): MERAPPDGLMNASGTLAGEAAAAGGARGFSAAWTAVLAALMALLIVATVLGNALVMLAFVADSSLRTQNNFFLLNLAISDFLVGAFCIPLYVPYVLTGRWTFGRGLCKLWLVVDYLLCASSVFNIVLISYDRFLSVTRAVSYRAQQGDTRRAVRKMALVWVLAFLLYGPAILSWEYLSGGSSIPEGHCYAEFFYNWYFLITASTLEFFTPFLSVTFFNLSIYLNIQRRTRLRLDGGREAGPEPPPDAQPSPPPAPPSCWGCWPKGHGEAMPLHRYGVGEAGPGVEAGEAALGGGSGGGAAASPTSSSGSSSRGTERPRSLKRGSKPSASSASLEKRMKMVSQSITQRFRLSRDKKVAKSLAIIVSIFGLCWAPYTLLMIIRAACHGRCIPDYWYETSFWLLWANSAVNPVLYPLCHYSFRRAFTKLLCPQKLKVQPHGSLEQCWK

## O=C(CN1CCOCC1)Nc1ccc(OC2CCN(C3CCC3)CC2)cc1 [SUVN-G3031, N-[4-(1-Cyclobutylpiperidin-4-yloxy)phenyl]-2-(morpholin-4-yl)acetamidedihydrochloride]
[1]; at 60 min (FIG. 1a)
  effect on (R)-α-methylhistamine induced dipsogenia (water consumption): blocked
[1]; at 120 min (FIG. 1b)
  effect on (R)-α-methylhistamine induced dipsogenia (water consumption): blocked
Male C57BL/6J mice
  time spent in wake period compared to vehicle: significant increase
Male Wistar rats
  time spent in wake period compared to vehicle: significantly increased
[2]
  cortical levels of dopamine: significant increase
  cortical levels of norepinephrine: significant increase
[3]; orexin-B-saporin lesioned rats (FIG. 5)
  cataplectic (direct transition of wake to REM) episodes: decreased
[3]; orexin-B-saporin lesioned rats, first 4 hours post dosing (FIG. 4a)
  wake period compared to vehicle: significant increase
[3]; orexin-B-saporin lesioned rats, first 4 hours post dosing (FIG. 4b)
  REM sleep: significant decrease
[3]; orexin-B-saporin lesioned rats, first 4 hours post dosing (FIG. 4c)
  NREM sleep: no effect
[4]; male Wistar rats, 0.3, 1 and 10 mg/kg, p.o. (FIG. 6)
  mean AUC of percent change in histamine levels compared to vehicle: statistically significant
[4]; male Wistar rats, 0.3-10 mg/kg, p.o.
  cortical histamine levels: significant increase
